Assay results published in ChEMBL document CHEMBL1201861, “Genomics of Drug Sensitity in Cancer screening data, Wellcome Trust Sanger Institute”.

Tests used:
Test in all cases: cells
[1] = test system: NCI-H1304; format: functional, cell-based; details: Homo sapiens;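 note: growth inhibition of the cancer cell line, measured in a cell viability assay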
Description: SANGER: Inhibition of human NCI-H1304 cell growth in a cell viability assay.

[2] = test system: SBC-1; format: functional, cell-based; details: Homo sapiens;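 note: cell viability assay measuring growth inhibition of the SBC-1 cell line, IC50 being the concentration that halves growth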
Description: SANGER: Inhibition of human SBC-1 cell growth in a cell viability assay.

[3] = test system: SAOS-2; format: functional, cell-based, Homo sapiens; details: Homo sapiens, SAOS-2;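 note: growth inhibition of human Saos-2 cells determined by a cell viability assay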
Description: SANGER: Inhibition of human Saos-2 cell growth in a cell viability assay.

[4] = test system: BPH-1; format: functional, cell-based, Homo sapiens; details: Homo sapiens, BPH-1;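 note: cell viability assay measuring growth inhibition of human BPH-1 cells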
Description: SANGER: Inhibition of human BPH-1 cell growth in a cell viability assay.

[5] = test system: MHH-ES-1; format: functional, cell-based, Homo sapiens; details: Homo sapiens, MHH-ES-1;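 note: cell growth inhibition measured by a cell viability assay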
Description: SANGER: Inhibition of human MHH-ES-1 cell growth in a cell viability assay.

[6] = test system: DEL; format: functional, cell-based; details: Homo sapiens;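 note: growth inhibition of the human DEL cell line, read out with a cell viability assay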
Description: SANGER: Inhibition of human DEL cell growth in a cell viability assay.

[7] = test system: NUGC-3; format: functional, cell-based, Homo sapiens; details: Homo sapiens, NUGC-3;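 note: growth inhibition of human NUGC-3 cells, read out with a cell viability assay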
Description: SANGER: Inhibition of human NUGC-3 cell growth in a cell viability assay.

[8] = test system: NCI-H1355; format: functional, cell-based, Homo sapiens; details: Homo sapiens, NCI-H1355;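 note: growth inhibition of human NCI-H1355 cells, read out by a cell viability assay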
Description: SANGER: Inhibition of human NCI-H1355 cell growth in a cell viability assay.

[9] = test system: EW-1; format: functional, cell-based, Homo sapiens; details: Homo sapiens, EW-1;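 note: growth inhibition of the human EW-1 cell line, read out by a cell viability assay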
Description: SANGER: Inhibition of human EW-1 cell growth in a cell viability assay.

[10] = test system: IST-SL1; format: functional, cell-based, Homo sapiens; details: Homo sapiens, IST-SL1;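 note: growth inhibition of human IST-SL1 cells, read out with a cell viability assay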
Description: SANGER: Inhibition of human IST-SL1 cell growth in a cell viability assay.

[11] = test system: SAS; format: functional, cell-based, Homo sapiens; details: Homo sapiens, SAS;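 note: growth inhibition of SAS cells, read out with a cell viability assay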
Description: SANGER: Inhibition of human SAS cell growth in a cell viability assay.

[12] = test system: BCPAP; format: functional, cell-based, Homo sapiens; details: Homo sapiens, BCPAP;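 note: growth inhibition of BCPAP cells, read out in a cell viability assay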
Description: SANGER: Inhibition of human BCPAP cell growth in a cell viability assay.

[13] = test system: ME-180; format: functional, cell-based; details: Homo sapiens;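 note: cell viability assay measuring growth inhibition of ME-180 cells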
Description: SANGER: Inhibition of human ME-180 cell growth in a cell viability assay.

[14] = test system: M14; format: functional, cell-based, Homo sapiens; details: Homo sapiens, M14;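 note: growth inhibition of M14 cells, read out with a cell viability assay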
Description: SANGER: Inhibition of human M14 cell growth in a cell viability assay.

[15] = test system: IST-MEL1; format: functional, cell-based, Homo sapiens; details: Homo sapiens, IST-MEL1;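 note: growth inhibition of the cell line, read out with a cell viability assay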
Description: SANGER: Inhibition of human IST-MEL1 cell growth in a cell viability assay.

[16] = test system: RS4-11; format: functional, cell-based; details: Homo sapiens;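 note: growth inhibition of RS4-11 cells, read out by a cell viability assay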
Description: SANGER: Inhibition of human RS4-11 cell growth in a cell viability assay.

[17] = test system: RMG-I; format: functional, cell-based, Homo sapiens; details: Homo sapiens, RMG-I;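 note: growth inhibition of human RMG-I cells, read out with a cell viability assay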
Description: SANGER: Inhibition of human RMG-I cell growth in a cell viability assay.

[18] = test system: A4-Fuk; format: functional, cell-based; details: Homo sapiens;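 note: growth inhibition of A4-Fuk cells, read out by a cell viability assay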
Description: SANGER: Inhibition of human A4-Fuk cell growth in a cell viability assay.

[19] = test system: HCC1806; format: functional, cell-based, Homo sapiens; details: Homo sapiens, HCC1806;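 note: growth inhibition of the cancer cell line, determined with a cell viability assay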
Description: SANGER: Inhibition of human HCC1806 cell growth in a cell viability assay.

[20] = test system: RO82-W-1; format: functional, cell-based, Homo sapiens; details: Homo sapiens, RO82-W-1;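 note: growth inhibition of human RO82-W-1 cells, measured with a cell viability assay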
Description: SANGER: Inhibition of human RO82-W-1 cell growth in a cell viability assay.

[21] = test system: KALS-1; format: functional, cell-based, Homo sapiens; details: Homo sapiens, KALS-1;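 note: growth inhibition of KALS-1 cells, determined with a cell viability assay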
Description: SANGER: Inhibition of human KALS-1 cell growth in a cell viability assay.

[22] = test system: RPMI-8866; format: functional, cell-based; details: Homo sapiens
Description: SANGER: Inhibition of human RPMI-8866 cell growth in a cell viability assay.

[23] = test system: MDA-MB-453; format: functional, cell-based, Homo sapiens; details: Homo sapiens, MDA-MB-453
Description: SANGER: Inhibition of human MDA-MB-453 cell growth in a cell viability assay.

[24] = test system: KYSE-180; format: functional, cell-based, Homo sapiens; details: Homo sapiens, KYSE-180;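 note: growth inhibition of KYSE-180 cells, read out with a cell viability assay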
Description: SANGER: Inhibition of human KYSE-180 cell growth in a cell viability assay.

[25] = test system: GT3TKB; format: functional, cell-based, Homo sapiens; details: Homo sapiens, GT3TKB;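 note: growth inhibition of the cell line, read out with a cell viability assay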
Description: SANGER: Inhibition of human GT3TKB cell growth in a cell viability assay.

[26] = test system: D-502MG; format: functional, cell-based, Homo sapiens; details: Homo sapiens, D-502MG
Description: SANGER: Inhibition of human D-502MG cell growth in a cell viability assay.

[27] = test system: CaR-1; format: functional, cell-based, Homo sapiens; details: Homo sapiens, CaR-1;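 note: growth inhibition of human CaR-1 cancer cells, read out with a cell viability assay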
Description: SANGER: Inhibition of human CaR-1 cell growth in a cell viability assay.

[28] = test system: COR-L23; format: functional, cell-based, Homo sapiens; details: Homo sapiens, COR-L23;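 note: cell viability assay measuring how strongly compounds suppress growth of COR-L23 cells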
Description: SANGER: Inhibition of human COR-L23 cell growth in a cell viability assay.

[29] = test system: OAW-28; format: functional, cell-based, Homo sapiens; details: Homo sapiens, OAW-28;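 note: growth inhibition of OAW-28 cells, read out with a cell viability assay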
Description: SANGER: Inhibition of human OAW-28 cell growth in a cell viability assay.

[30] = test system: TE-11; format: functional, cell-based, Homo sapiens; details: Homo sapiens, TE-11;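 note: growth inhibition of human TE-11 cells, read out by a cell viability assay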
Description: SANGER: Inhibition of human TE-11 cell growth in a cell viability assay.

[31] = test system: KOSC-2; format: functional, cell-based, Homo sapiens; details: Homo sapiens, KOSC-2;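 note: growth inhibition of KOSC-2 cells, read out by a cell viability assay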
Description: SANGER: Inhibition of human KOSC-2 cell growth in a cell viability assay.

[32] = test system: FaDu; format: functional, cell-based, Homo sapiens; details: Homo sapiens, FaDu;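 note: cell viability readout of growth inhibition in FaDu cells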
Description: SANGER: Inhibition of human FADU cell growth in a cell viability assay.

[33] = test system: A101D; format: functional, cell-based, Homo sapiens; details: Homo sapiens, A101D;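 note: growth inhibition of the cell line, measured with a viability assay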
Description: SANGER: Inhibition of human A101D cell growth in a cell viability assay.

[34] = test system: VA-ES-BJ; format: functional, cell-based, Homo sapiens; details: Homo sapiens, VA-ES-BJ;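 note: growth inhibition of the VA-ES-BJ cell line, read out by a cell viability assay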
Description: SANGER: Inhibition of human VA-ES-BJ cell growth in a cell viability assay.

[35] = test system: A498; format: functional, cell-based, Homo sapiens; details: Homo sapiens, A498;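 note: growth inhibition of human A498 cells, read out with a cell viability assay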
Description: SANGER: Inhibition of human A498 cell growth in a cell viability assay.

[36] = test system: CAKI-1; format: functional, cell-based, Homo sapiens; details: Homo sapiens, CAKI-1;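 note: growth inhibition of CAKI-1 cells, measured by a cell viability assay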
Description: SANGER: Inhibition of human CAKI-1 cell growth in a cell viability assay.

[37] = test system: DMS-273; format: functional, cell-based, Homo sapiens; details: Homo sapiens, DMS-273
Description: SANGER: Inhibition of human DMS-273 cell growth in a cell viability assay.

[38] = test system: MFM-223; format: functional, cell-based, Homo sapiens; details: Homo sapiens, MFM-223
Description: SANGER: Inhibition of human MFM-223 cell growth in a cell viability assay.

[39] = test system: MS-1; format: functional, cell-based; details: Homo sapiens;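 note: growth inhibition of MS-1 cells, read out by cell viability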
Description: SANGER: Inhibition of human MS-1 cell growth in a cell viability assay.

[40] = test system: GCT; format: functional, cell-based, Homo sapiens; details: Homo sapiens, GCT;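 note: GCT cell line proliferation inhibition, read out with a cell viability assay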
Description: SANGER: Inhibition of human GCT cell growth in a cell viability assay.

[41] = test system: BHY; format: functional, cell-based, Homo sapiens; details: Homo sapiens, BHY;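 note: cell growth inhibition read out by a viability assay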
Description: SANGER: Inhibition of human BHY cell growth in a cell viability assay.

[42] = test system: UACC-62; format: functional, cell-based, Homo sapiens; details: Homo sapiens, UACC-62;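 note: growth inhibition of human UACC-62 cells, read out by a cell viability assay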
Description: SANGER: Inhibition of human UACC-62 cell growth in a cell viability assay.

[43] = test system: SK-OV-3; format: functional, cell-based, Homo sapiens; details: Homo sapiens, SK-OV-3;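 note: growth inhibition of SK-OV-3 human cells, read out with a cell viability assay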
Description: SANGER: Inhibition of human SK-OV-3 cell growth in a cell viability assay.

[44] = test system: NCI-H2122; format: functional, cell-based, Homo sapiens; details: Homo sapiens, NCI-H2122;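 note: growth inhibition of the cells, read out with a cell viability assay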
Description: SANGER: Inhibition of human NCI-H2122 cell growth in a cell viability assay.

[45] = test system: NB17; format: functional, cell-based; details: Homo sapiens;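 note: growth inhibition of NB17 cells, read out with a cell viability assay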
Description: SANGER: Inhibition of human NB17 cell growth in a cell viability assay.

[46] = test system: HCC1954; format: functional, cell-based, Homo sapiens; details: Homo sapiens, HCC1954;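 note: growth inhibition of human HCC1954 cells, read out with a cell viability assay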
Description: SANGER: Inhibition of human HCC1954 cell growth in a cell viability assay.

[47] = test system: Huh-7; format: functional, cell-based, Homo sapiens; details: Homo sapiens, Huh-7;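 note: HuH-7 cell growth inhibition, read out with a cell viability assay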
Description: SANGER: Inhibition of human HuH-7 cell growth in a cell viability assay.

[48] = test system: SW756; format: functional, cell-based, Homo sapiens; details: Homo sapiens, SW756;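 note: growth inhibition of human SW756 cells, read out with a cell viability assay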
Description: SANGER: Inhibition of human SW756 cell growth in a cell viability assay.

[49] = test system: P12-Ichikawa; format: functional, cell-based; details: Homo sapiens
[50] = test system: MMAC-SF; format: functional, cell-based, Homo sapiens; details: Homo sapiens, MMAC-SF;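 note: growth inhibition of human MMAC-SF cells, read out with a cell viability assay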
Description: SANGER: Inhibition of human MMAC-SF cell growth in a cell viability assay.

[51] = test system: SK-UT-1; format: functional, cell-based, Homo sapiens; details: Homo sapiens, SK-UT-1;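 note: growth inhibition of SK-UT-1 cells, measured by a cell viability assay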
Description: SANGER: Inhibition of human SK-UT-1 cell growth in a cell viability assay.

With `COc1cc(F)c(F)c(Nc2ccc(I)cc2F)c1NS(=O)(=O)C1(CC(O)CO)CC1` (stereo not drawn) the IC50 [1] was greater than 5000 nM, the IC50 [2] was greater than 5000 nM and the IC50 [3] was greater than 5000 nM. The IC50 [4] was 135 nM, the IC50 [5] was greater than 5000 nM and the IC50 [6] was greater than 5000 nM. It also gave an IC50 [7] of 4340 nM, an IC50 [8] greater than 5000 nM and an IC50 [9] greater than 5000 nM. For the same compound, the IC50 [10] was greater than 5000 nM, the IC50 [11] was 3940 nM and the IC50 [12] was 2180 nM. For the same compound, the IC50 [13] was 1750 nM, the IC50 [14] was 28.6 nM and the IC50 [15] was 1890 nM. The IC50 [16] was greater than 5000 nM, the IC50 [17] was greater than 5000 nM and the IC50 [18] was 1850 nM. It also gave an IC50 [19] greater than 5000 nM, an IC50 [20] greater than 5000 nM and an IC50 [21] greater than 5000 nM. It also gave an IC50 [22] greater than 5000 nM, an IC50 [23] greater than 5000 nM and an IC50 [24] greater than 5000 nM. It also gave an IC50 [25] greater than 5000 nM, an IC50 [26] of 3810 nM and an IC50 [27] greater than 5000 nM. The IC50 [28] was 2780 nM, the IC50 [29] was greater than 5000 nM and the IC50 [30] was greater than 5000 nM. It also gave an IC50 [31] of 1680 nM, an IC50 [32] greater than 5000 nM and an IC50 [33] of 51.2 nM. It also gave an IC50 [34] greater than 5000 nM, an IC50 [35] greater than 5000 nM and an IC50 [36] greater than 5000 nM. It also gave an IC50 [37] greater than 5000 nM, an IC50 [38] greater than 5000 nM and an IC50 [39] greater than 5000 nM. It also gave an IC50 [40] greater than 5000 nM, an IC50 [41] of 3290 nM and an IC50 [42] greater than 5000 nM. It also gave an IC50 [43] greater than 5000 nM, an IC50 [44] of 2170 nM and an IC50 [45] greater than 5000 nM. It also gave an IC50 [46] greater than 5000 nM, an IC50 [47] of 1470 nM and an IC50 [48] of 1230 nM. It also gave an IC50 [49] of 1780 nM.

`O=c1cc(-c2cccc3c2Sc2ccccc2S3)oc(N2CCOCC2)c1` [KU-55933] gave an IC50 [1] greater than 10000 nM, an IC50 [3] greater than 10000 nM and an IC50 [4] greater than 10000 nM. The IC50 [5] was greater than 10000 nM, the IC50 [6] was greater than 10000 nM and the IC50 [7] was greater than 10000 nM. For the same compound, the IC50 [8] was greater than 10000 nM, the IC50 [9] was greater than 10000 nM and the IC50 [10] was greater than 10000 nM. For the same compound, the IC50 [11] was greater than 10000 nM, the IC50 [12] was greater than 10000 nM and the IC50 [13] was greater than 10000 nM. The IC50 [14] was greater than 10000 nM, the IC50 [15] was greater than 10000 nM and the IC50 [16] was greater than 10000 nM. The IC50 [17] was greater than 10000 nM, the IC50 [18] was greater than 10000 nM and the IC50 [50] was greater than 10000 nM. For the same compound, the IC50 [51] was greater than 10000 nM, the IC50 [19] was greater than 10000 nM and the IC50 [20] was greater than 10000 nM. For the same compound, the IC50 [21] was greater than 10000 nM, the IC50 [22] was greater than 10000 nM and the IC50 [23] was greater than 10000 nM. For the same compound, the IC50 [24] was greater than 10000 nM, the IC50 [25] was greater than 10000 nM and the IC50 [26] was greater than 10000 nM. It also gave an IC50 [27] greater than 10000 nM, an IC50 [28] greater than 10000 nM and an IC50 [29] greater than 10000 nM. The IC50 [30] was greater than 10000 nM, the IC50 [31] was greater than 10000 nM and the IC50 [32] was greater than 10000 nM. It also gave an IC50 [33] greater than 10000 nM, an IC50 [34] greater than 10000 nM and an IC50 [35] greater than 10000 nM. For the same compound, the IC50 [36] was greater than 10000 nM, the IC50 [37] was greater than 10000 nM and the IC50 [38] was greater than 10000 nM. It also gave an IC50 [39] greater than 10000 nM, an IC50 [40] greater than 10000 nM and an IC50 [41] greater than 10000 nM. For the same compound, the IC50 [42] was greater than 10000 nM, the IC50 [43] was greater than 10000 nM and the IC50 [44] was greater than 10000 nM. It also gave an IC50 [45] greater than 10000 nM, an IC50 [46] greater than 10000 nM and an IC50 [47] greater than 10000 nM. For the same compound, the IC50 [48] was greater than 10000 nM and the IC50 [49] was greater than 10000 nM.

For `COc1ccc(-c2ccc3c(N4CCOC[C@@H]4C)nc(N4CCOC[C@@H]4C)nc3n2)cc1CO` [AZD-8055], the IC50 [1] was greater than 2000 nM, the IC50 [2] was 45.8 nM and the IC50 [3] was 1820 nM. The IC50 [4] was 884 nM, the IC50 [5] was 835 nM and the IC50 [6] was 968 nM. The IC50 [7] was 707 nM, the IC50 [8] was 539 nM and the IC50 [9] was 1610 nM. For the same compound, the IC50 [10] was greater than 2000 nM, the IC50 [11] was greater than 2000 nM and the IC50 [12] was 588 nM. It also gave an IC50 [13] of 147 nM, an IC50 [14] of 472 nM and an IC50 [15] of 1190 nM. The IC50 [16] was 759 nM, the IC50 [17] was greater than 2000 nM and the IC50 [18] was 1200 nM. It also gave an IC50 [19] of 933 nM, an IC50 [20] of 1520 nM and an IC50 [21] greater than 2000 nM. For the same compound, the IC50 [22] was 858 nM, the IC50 [23] was 1160 nM and the IC50 [24] was 1110 nM. The IC50 [25] was greater than 2000 nM, the IC50 [26] was greater than 2000 nM and the IC50 [27] was 1750 nM. It also gave an IC50 [28] of 1350 nM, an IC50 [29] greater than 2000 nM and an IC50 [30] greater than 2000 nM. It also gave an IC50 [31] of 1080 nM, an IC50 [32] greater than 2000 nM and an IC50 [33] of 490 nM. For the same compound, the IC50 [34] was 343 nM, the IC50 [35] was greater than 2000 nM and the IC50 [36] was 746 nM. For the same compound, the IC50 [37] was 769 nM, the IC50 [38] was 426 nM and the IC50 [39] was greater than 2000 nM. For the same compound, the IC50 [40] was 1340 nM, the IC50 [41] was 887 nM and the IC50 [42] was greater than 2000 nM. The IC50 [43] was 672 nM, the IC50 [44] was greater than 2000 nM and the IC50 [45] was greater than 2000 nM. It also gave an IC50 [46] greater than 2000 nM, an IC50 [47] of 434 nM and an IC50 [48] greater than 2000 nM. The IC50 [49] was 1030 nM.
